These results are taken from ChEMBL document CHEMBL1201862, “PubChem BioAssay data set” (2004).

Experiment in all cases: NCI-60 cell line screen, 48 h
Experiment [1] has as its system MDA-MB-231.
The test system of experiment [2] is PC-3.
Experiment [3] has as its system 786-0.
Experiment [4] has as its system T47D.
Experiment [5] relates to Malme-3M.
For experiment [6], the system named is KM12.
The test system of experiment [7] is CAKI-1.
The subject of experiment [8] is SF-295.
The test system of experiment [9] is LOX IMVI.
The subject of experiment [10] is IGROV-1.
The test system of experiment [11] is NCI-H522.
In experiment [12] the test system is RPMI-8226.
Experiment [13] has as its system SR.
Experiment [14] deals with HOP-92.
Experiment [15] relates to HOP-62.
Experiment [16] has as its system A549.
The test system of experiment [17] is UACC-62.
The test system of experiment [18] is SK-MEL-5.
For experiment [19], the system named is OVCAR-4.
The subject of experiment [20] is UACC-257.

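Test compounds were applied to cells in 96-well plates for 48 hours at 5 doses. GI50 marks 50% less growth.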 Active and inactive are the calls of the source. Cut-off read from the data, not from the text of the source: active = GI50 up to about 1.1 µM and inactive = higher.

On to `CN(C)CCCNC(=O)c1c(O)c2ccccc2n(C)c1=O`, for which the GI50 is 86.5 µM (inactive) in experiment [1]; 67.6 µM (inactive) in [2]; 65.3 µM (inactive) in [3]; 71.3 µM (inactive) in experiment [4]; 72.4 µM (inactive) in experiment [5]; > 100 µM (inactive) in experiment [6]. For the same molecule, the GI50 in [7] is 41.4 µM (inactive); in experiment [8], 48.5 µM (inactive); in experiment [9], 30.6 µM (inactive); in [10], > 100 µM (inactive); in experiment [11] it was 61.8 µM (inactive); in experiment [12], 73.8 µM (inactive). Further, the GI50 is 41.5 µM (inactive) in experiment [13]; 14.3 µM (inactive) in experiment [14]; 36.3 µM (inactive) in experiment [15]; 82.2 µM (inactive) in experiment [16]; 64.9 µM (inactive) in experiment [17]; 53.7 µM (inactive) in experiment [18]. Also, the values for the GI50 in experiment [19] and in [20] were 78.3 µM (inactive) and 67.5 µM (inactive), respectively.

For the molecule `COc1cc(/C=C2\C[C@H]3[C@@H]4CC=C5C[C@@H](OC(C)=O)CC[C@]5(C)[C@H]4CC[C@]3(C)\C2=N\O)cc(OC)c1OC`, the GI50 was 15.1 µM (inactive) in [1]; 2.54 µM (inactive) in experiment [2]; 5.08 µM (inactive) in experiment [3]; 1.64 µM (inactive) in experiment [4]; 8.95 µM (inactive) in experiment [5]; 4.06 µM (inactive) in experiment [6]. Besides, the GI50 in [7] was 3.33 µM (inactive); in [8] it was 3.21 µM (inactive); in [9], 4.32 µM (inactive); in experiment [10], 10 µM (inactive); in [11], 4.85 µM (inactive); in experiment [12] it was 0.56 µM (active). For the same molecule, the GI50 was 3.58 µM (inactive) in experiment [13]; 2.59 µM (inactive) in experiment [14]; 13.1 µM (inactive) in experiment [15]; 4.69 µM (inactive) in [16]; 6.73 µM (inactive) in [17]; 3.61 µM (inactive) in experiment [18]. For the same molecule, the GI50 was 3.37 µM (inactive) in [19] and 5.74 µM (inactive) in experiment [20].

On to `Cn1cnc([N+](=O)[O-])c1Sc1nc(N)nc2c1ncn2[C@H]1C[C@H](O)[C@@H](CO)O1`, for which the GI50 in experiment [1] was 3.36 µM (inactive); in [2], 6.84 µM (inactive); in [3] it was 3.86 µM (inactive); in [4], 7.52 µM (inactive); in [5], 5.26 µM (inactive); in experiment [6], 2.77 µM (inactive). The GI50 in experiment [7] was 4.05 µM (inactive); in [8], 3.11 µM (inactive); in experiment [9], 0.434 µM (active); in experiment [10], 5.13 µM (inactive); in experiment [11], 2.57 µM (inactive); in experiment [12], 1.09 µM (active). The GI50 in experiment [13] is 1.07 µM (active); in experiment [14] it was 17.3 µM (inactive); in [15], 0.971 µM (active); in [16], 4.63 µM (inactive); in experiment [17], 1.51 µM (inactive); in experiment [18], 4.08 µM (inactive). Moreover, the results for the GI50 in [19] and in experiment [20] were 2.99 µM (inactive) and 8.32 µM (inactive), respectively.

As for `CC(C)=CCc1c2c(c(O)c3c(=O)c4c(oc13)-c1ccc(O)cc1OC4C=C(C)C)C=CC(C)(C)O2` (stereo not given), the GI50 in experiment [1] is 14.2 µM (inactive); in experiment [2], 12.1 µM (inactive); in experiment [3], 11.4 µM (inactive); in [4], 8.79 µM (inactive); in experiment [5], 19.3 µM (inactive); in [6] it was 8.04 µM (inactive). In addition, the GI50 in [7] is 20 µM (inactive); in experiment [8], 14.6 µM (inactive); in [9], 8.61 µM (inactive); in [10], 14 µM (inactive); in experiment [11], 12.4 µM (inactive); in experiment [12], 3.54 µM (inactive). Besides, the GI50 in [13] is 5.33 µM (inactive); in experiment [14], 7.11 µM (inactive); in [15] it was 14.2 µM (inactive); in experiment [16], 10.8 µM (inactive); in experiment [17], 13.7 µM (inactive); in [18] it was 14.8 µM (inactive). Further, the GI50 in experiment [19] was 11.6 µM (inactive); in experiment [20], 15.4 µM (inactive).

Regarding `CC1(C)C=Cc2c(cc3oc4ccc5c(c4c(=O)c3c2O)C=CC(C)(C)O5)O1`, the GI50 in experiment [1], in experiment [2], in [3], in experiment [4], in [5] and in experiment [6] was > 100 µM (inactive) each time. For the same molecule, the GI50 in experiment [7], in experiment [8], in experiment [9], in [10], in experiment [11] and in experiment [12] was > 100 µM (inactive) throughout. Moreover, the GI50 in [13] was 75.3 µM (inactive); in experiment [14], > 100 µM (inactive); in [15] it was > 100 µM (inactive); in experiment [16], > 100 µM (inactive); in experiment [17], > 100 µM (inactive); in experiment [18], > 100 µM (inactive). Besides, the GI50 in experiment [19] and in experiment [20] was > 100 µM (inactive) in each case.

`COc1ccc(/C=C2/CSCC3=C2N=C(S)NC3c2ccc(OC)c(OC)c2OC)c(OC)c1OC` (stereo not given): the GI50 in experiment [1] is 17.7 µM (inactive); in [2], 12.1 µM (inactive); in [3], 13.8 µM (inactive); in experiment [4], 43.4 µM (inactive); in experiment [5] it was 23.2 µM (inactive); in experiment [6], 12.1 µM (inactive). Further, the GI50 in experiment [7] is 36.6 µM (inactive); in [8] it was 32.6 µM (inactive); in experiment [9], 15.4 µM (inactive); in experiment [10], 20 µM (inactive); in experiment [11], 22.1 µM (inactive); in experiment [12] it was 3.7 µM (inactive). In addition, the GI50 in experiment [13] was < 0.01 µM (active); in [14] it was < 0.01 µM (active); in [15] it was 20.1 µM (inactive); in [16] it was 24.8 µM (inactive); in [17], 16.8 µM (inactive); in experiment [18] it was 11.1 µM (inactive). Also, the figures for the GI50 in [19] and in experiment [20] were 2.61 µM (inactive) and 14.8 µM (inactive), respectively.

As for `COc1ccc2c(c1)CN1C(=N2)CSC1c1cccc(Br)c1` (stereo not given), the GI50 in [1] was > 100 µM (inactive); in [2] it was 17.7 µM (inactive); in experiment [3] it was 17.8 µM (inactive); in [4] it was 52.7 µM (inactive); in experiment [5] it was 60.1 µM (inactive); in experiment [6] it was 19.1 µM (inactive). Besides, the GI50 in experiment [7] was 16.3 µM (inactive); in experiment [8], 30.5 µM (inactive); in [9] it was 23.9 µM (inactive); in [10], 43.9 µM (inactive); in [11] it was 22.6 µM (inactive); in experiment [12], 6.44 µM (inactive). Further, the GI50 in [13] was 5.33 µM (inactive); in experiment [14] it was 8.61 µM (inactive); in experiment [15], 46.8 µM (inactive); in experiment [16], 30.6 µM (inactive); in experiment [17], 17.8 µM (inactive); in experiment [18], 5.71 µM (inactive). In addition, the GI50 in experiment [19] is 36.9 µM (inactive); in experiment [20], 20.3 µM (inactive).

On to `CC(C)C1C(=O)N(c2c(F)c(F)c(F)c(F)c2F)C(=S)N1CC[S+]([O-])c1ccccc1` (stereo not given), for which the GI50 in [1] was 16 µM (inactive); in [2], 15.4 µM (inactive); in experiment [3], 16.9 µM (inactive); in [4], 6.78 µM (inactive); in experiment [5], 15.7 µM (inactive); in experiment [6], 16.8 µM (inactive). Moreover, the GI50 is 5.19 µM (inactive) in experiment [7]; 18 µM (inactive) in experiment [8]; 14.4 µM (inactive) in experiment [9]; 16.7 µM (inactive) in experiment [10]; 6.49 µM (inactive) in experiment [11]; 18.8 µM (inactive) in experiment [12]. In addition, the GI50 is 6.22 µM (inactive) in experiment [13]; 9.77 µM (inactive) in experiment [14]; 23.9 µM (inactive) in [15]; 18.9 µM (inactive) in experiment [16]; 19.7 µM (inactive) in experiment [17]; 14.2 µM (inactive) in [18]. Besides, the GI50 is 16.3 µM (inactive) in experiment [19] and 20.2 µM (inactive) in [20].

`Cc1ccc(S(=O)(=O)NC(CO)C(=O)O)cc1` (stereo not given): the GI50 in experiment [1], in experiment [2], in experiment [3], in [4], in [5] and in [6] was > 100 µM (inactive) each time. Moreover, the GI50 in experiment [7], in experiment [8], in experiment [9], in [10], in experiment [11] and in [12] was > 100 µM (inactive) each time. The GI50 in experiment [13], in experiment [14], in [15], in [16], in [17] and in experiment [18] was > 100 µM (inactive) in each case. The GI50 in experiment [19] and in experiment [20] was > 100 µM (inactive) throughout.

Consider `COc1cc(OCCN(C)C)c2[nH]c(C(=O)N3CC(CCl)c4ccc(N)cc43)cc2c1` (stereo not given), for which the GI50 in experiment [1] was 0.0912 µM (active); in experiment [2], 0.0241 µM (active); in experiment [3], 0.0202 µM (active); in experiment [4], 0.0312 µM (active); in experiment [5], 0.0904 µM (active); in experiment [6] it was 0.0324 µM (active). Further, the GI50 was 0.022 µM (active) in experiment [7]; 0.0369 µM (active) in experiment [8]; 0.021 µM (active) in experiment [9]; 0.0148 µM (active) in [10]; 0.0139 µM (active) in [11]; 0.0358 µM (active) in experiment [12]. The GI50 in experiment [13] was < 0.01 µM (active); in experiment [14] it was 0.0596 µM (active); in experiment [15], 0.0164 µM (active); in [16], 0.0377 µM (active); in experiment [17], 0.0404 µM (active); in experiment [18], 0.0342 µM (active). For the same molecule, the GI50 is 0.029 µM (active) in [19] and 0.0546 µM (active) in [20].
